Experimental data reported in patent US8969395B2, “Triterpenoid derivatives useful as antiproliferative agents” (Universidade de Coimbra, priority 2009, dated 2015).

Legend:
[1] = tested on: HepG2 (human hepatocellular carcinoma); test: Cytotoxic activity, MTT assay, HepG2; format: cell-based; conditions: mean ±SD
Procedure: (§1) The cytotoxic of compounds of formulas (I) and (II) 14-50 was assessed towards human cancer (HepG2, HeLa and Jurkat) cell lines (Table 3 below). Compounds presented on Table 4 were also tested against a non-tumoral liver cell line (Chang liver). The cell viability of HeLa, HepG2 and Chang liver cells was determined by the MTT assay. Briefly, exponentially growing cells were plated in 96-well plates at a density of 1×10^3, 8×10^3 and 5×10^3 cells/well respectively and incubated for 24 h before treatment. The grown medium was replaced with one contained the tested compounds dissolved in DMSO (final DMSO concentration <0.1%) at different concentrations, in triplicate wells, and cells were incubated for 72 h. After incubation with the compounds, the medium was removed and MTT solution (0.5 mg/ml, 100 μl) was added to each well and the plates were incubated again for 1 h. DMSO (100 μl) was then added to dissolve the formazan crystals and the plates were immediately read at 550 nm on an ELISA plate reader (Tecan Sunrise MR20-301, TECAN, Austria). For the Jurkat cells, the cell viability was determined by the XTT assay. Briefly, exponentially growing cells were plated in 96-well plates at a density of 5.5×10^3 cells/well, treated with different concentrations of compounds in triplicate and incubated for 72 h. After incubation with the compounds the XTT labeling mixture (100 μl) were added to each of the wells and after a 4 h incubation period the plates were read at 450 nm on an ELISA plate reader. […] Known for its cytotoxic activity, betulinic acid 2 was used as a positive control in this experimentation. […] All the IC50 results represent an average of a minimum of three experiments and were expressed as means±standard deviation (SD).

[2] = tested on: HT-29 (human colon adenocarcinoma); test: Cytotoxic activity, HT-29; format: cell-based; conditions: mean ±SD
Procedure: (§2) Compounds presented in Table 6 were also tested in the following cell lines: PC-3 (human prostate adenocarcinoma), LNCaP (human prostate adenocarcinoma), LAPC4 (human prostate adenocarcinoma) and HT-29 (human colon adenocarcinoma).

[3] = tested on: HeLa (human cervical adenocarcinoma); test: Cytotoxic activity, MTT assay, HeLa; format: cell-based; conditions: 72 h, mean ±SD
Procedure: The cytotoxic of compounds of formulas (I) and (II) 14-50 was assessed towards human cancer (HepG2, HeLa and Jurkat) cell lines (Table 3 below). Compounds presented on Table 4 were also tested against a non-tumoral liver cell line (Chang liver). The cell viability of HeLa, HepG2 and Chang liver cells was determined by the MTT assay. Briefly, exponentially growing cells were plated in 96-well plates at a density of 1×10^3, 8×10^3 and 5×10^3 cells/well respectively and incubated for 24 h before treatment. The grown medium was replaced with one contained the tested compounds dissolved in DMSO (final DMSO concentration <0.1%) at different concentrations, in triplicate wells, and cells were incubated for 72 h. After incubation with the compounds, the medium was removed and MTT solution (0.5 mg/ml, 100 μl) was added to each well and the plates were incubated again for 1 h. DMSO (100 μl) was then added to dissolve the formazan crystals and the plates were immediately read at 550 nm on an ELISA plate reader (Tecan Sunrise MR20-301, TECAN, Austria). For the Jurkat cells, the cell viability was determined by the XTT assay. Briefly, exponentially growing cells were plated in 96-well plates at a density of 5.5×10^3 cells/well, treated with different concentrations of compounds in triplicate and incubated for 72 h. After incubation with the compounds the XTT labeling mixture (100 μl) were added to each of the wells and after a 4 h incubation period the plates were read at 450 nm on an ELISA plate reader. […] Known for its cytotoxic activity, betulinic acid 2 was used as a positive control in this experimentation.

[4] = tested on: Jurkat (human leukemia); test: Cytotoxic activity, XTT assay, Jurkat; format: cell-based; conditions: 72 h, mean ±SD
Procedure: as §1

[5] = tested on: HepG2 cells; test: Cell cycle analysis by flow cytometry (FACS, PI), HepG2; format: cell-based, human; conditions: HepG2, compound at its IC50, 72 h
Procedure: (§3) The effects on the cell cycle of some of these compounds were assessed through flow cytometry by using a fluorescence-activated cell sorter (FACS) (Table 5 below). For this assay 2.3×10^5 HepG2 cells/well, 2.9×10^4 HeLa cells/well, 1.6×10^5 Jurkat cells/well and 1.4×10^5 Chang liver cells/well were plated in 6 well plates with 2 ml of medium. The number of cells was determined by the relationship number of cells/area wells, considering the number of cells that were cultured in 96-well plates. […] Chang liver cells were incubated with compounds 20, […] at concentrations corresponding to the IC80 determined for HepG2 at 72 h. Following 72 h. of incubation, cells were harvested by mild trypsinization, collected by centrifugation and stained in ice-cold Tris-buffered saline (TBS), containing 1 mg/ml PI, 10 mg/ml RNAse free of DNAase and 0.1% Igepal CA-630 for 1 h at 4° C. FACS analysis was carried out at 488 nm in an Epics XL flow cytometer (Coulter Corporation, Hialeah, Fla.). Data from 8×10^3 cells were collected and analyzed using Multicycle program (Phoenix Flow Systems, San Diego, Calif.). All experiments were performed three times with three replicates per experiment. […] To explore the selectivity of the effect on tumor cells, we also tested compounds 20, 44 and 46 in a non-malignant cell line. Chang liver cells were treated with the compounds at the IC80 values determined for HepG2 after 72 h of incubation and no effect was observed, indicating a selective effect of these agents (Table 5 below).

[6] = tested on: Jurkat cells; test: Cell cycle analysis by flow cytometry (FACS, PI), Jurkat; format: cell-based, human; conditions: compound at its IC50, 72 h
Procedure: as §3

[7] = tested on: Chang liver (human normal liver cells); test: Cytotoxic activity against non-tumoral cell line, MTT assay; format: cell-based; conditions: 72 h, mean ±SD
Procedure: as §1

[8] = tested on: HeLa cells; test: Cell cycle analysis by flow cytometry (FACS, PI), HeLa; format: cell-based, human; conditions: compound at its IC50, 72 h
Procedure: as §3

[9] = tested on: LAPC4 (human prostate adenocarcinoma); test: Cytotoxic activity, LAPC4; format: cell-based; conditions: mean ±SD
Procedure: as §2

[10] = tested on: LNCaP (human prostate adenocarcinoma); test: Cytotoxic activity, LNCaP; format: cell-based; conditions: mean ±SD
Procedure: as §2

[11] = tested on: PC-3 (human prostate adenocarcinoma); test: Cytotoxic activity, PC-3; format: cell-based; conditions: mean ±SD
Procedure: as §2

Row | Compound | IC50 ([1]; 72 h) | IC50 [2] | IC50 [3] | IC50 [4] | IC50 [9] | IC50 [10] | IC50 [7] | IC50 [11] | also measured
1 | 3β-(1H-imidazole-2′-methyl-1-carbonyloxy)-lup-20(29)-en-28-oic acid [Compound 29] | 7.3 ± 1 µM | 5.7 ± 0.6 µM | 7.5 ± 1.5 µM | 16.1 ± 3.3 µM | – | – | – | – | –
2 | C=C(C)[C@@H]1CC[C@]2(C(=O)O)CC[C@]3(C)[C@H](CC[C@@H]4[C@@]5(C)CC[C@H](O)C(C)(C)[C@@H]5CC[C@]43C)[C@@H]12 [Compound 2, Betulinic acid, reference compound] | – | – | – | – | – | – | – | – | Phase of cell cycle (% of cells) G0/G1 [5]: 59.7 ± 2.0 % of cells; Phase of cell cycle (% of cells) G2/M [5]: 14.3 ± 0.9 % of cells; Phase of cell cycle (% of cells) S [5]: 25.9 ± 1.3 % of cells; Phase of cell cycle (% of cells) G0/G1 [6]: 56.8 ± 5.0 % of cells; Phase of cell cycle (% of cells) G2/M [6]: 24.1 ± 4.7 % of cells; Phase of cell cycle (% of cells) S [6]: 18.9 ± 1.2 % of cells; IC50 ([1]; Homo sapiens, HepG2, 72 h): 36.4 ± 1.5 µM; IC50 ([3]; Homo sapiens, HeLa): 26 ± 2.1 µM; IC50 ([4]; Homo sapiens, Jurkat): 26.9 ± 2.2 µM; IC50 ([7]; Homo sapiens, Chang liver): 92.3 ± 4.1 µM; Phase of cell cycle (% of cells) G0/G1 [8]: 66.8 ± 1.2 % of cells; Phase of cell cycle (% of cells) G2/M [8]: 11.7 ± 1.1 % of cells; Phase of cell cycle (% of cells) S [8]: 21.4 ± 0.9 % of cells
3 | C=C(C)[C@@H]1CC[C@]2(COC(=O)n3ccnc3)CC[C@]3(C)[C@H](CC[C@@H]4[C@@]5(C)CC[C@H](O)C(C)(C)[C@@H]5CC[C@]43C)[C@@H]12 [Compound 14, 3β-hydroxy-lup-20(29)-en-28-yl-1H-imidazole-1-carboxylate] | 4.2 ± 0.3 µM | – | 7.6 ± 0.6 µM | 16.3 ± 1.2 µM | 10.3 ± 1.6 µM | 13 ± 1.5 µM | 79.7 ± 6.4 µM | 21 ± 2 µM | –
4 | C=C(C)[C@@H]1CC[C@]2(COC(=O)n3ccnc3C)CC[C@]3(C)[C@H](CC[C@@H]4[C@@]5(C)CC[C@H](O)C(C)(C)[C@@H]5CC[C@]43C)[C@@H]12 [Compound 15, 3β-hydroxy-lup-20(29)-en-28-yl-2′-methyl-1H-imidazole-1-carboxylate] | 8.1 ± 0.4 µM | 16.2 ± 2.1 µM | 11 ± 1.7 µM | 15.8 ± 2.4 µM | – | – | – | – | –
5 | C=C(C)[C@@H]1CC[C@]2(COC(=O)n3ccnc3)CC[C@]3(C)[C@H](CC[C@@H]4[C@@]5(C)CC[C@H](OC(=O)n6ccnc6)C(C)(C)[C@@H]5CC[C@]43C)[C@@H]12 [Compound 17, Lup-20(29)-en-3β,28-di-yl-(1H-imidazole-1-carboxylate)] | > 30 µM | – | > 30 µM | > 30 µM | 12.9 ± 1.1 µM | 14.4 ± 1.3 µM | – | > 30 µM | –
6 | C=C(C)[C@@H]1CC[C@]2(C(=O)O)CC[C@]3(C)[C@H](CC[C@@H]4[C@@]5(C)CC[C@H](OC(=O)n6ccnc6)C(C)(C)[C@@H]5CC[C@]43C)[C@@H]12 [Compound 28, 3β-(1H-imidazole-1-carbonyloxy)-lup-20(29)-en-28-oic acid] | 6.2 ± 0.2 µM | – | 5.1 ± 0.3 µM | 5.2 ± 0.7 µM | 11.8 ± 0.9 µM | 15.6 ± 0.8 µM | 56.8 ± 2.2 µM | 5.6 ± 0.4 µM | –
7 | C=C(C)[C@@H]1CC[C@]2(C(=O)n3ccnc3)CC[C@]3(C)[C@H](CC[C@@H]4[C@@]5(C)CC[C@H](OC(=O)n6ccnc6)C(C)(C)[C@@H]5CC[C@]43C)[C@@H]12 [Compound 30, 28-(1H-imidazole-1-yl)-28-oxo-lup-20(29)-en-3β-yl-1H-imidazole-1-carboxylate] | 2.9 ± 0.4 µM | – | 8.2 ± 0.4 µM | 6 ± 1.2 µM | 4.4 ± 0.2 µM | 1.9 ± 0.2 µM | 150 ± 13.6 µM | 1.1 ± 0.1 µM | –
8 | C=C(C)[C@@H]1CC[C@]2(C(=O)n3ccnc3C)CC[C@]3(C)[C@H](CC[C@@H]4[C@@]5(C)CC[C@H](OC(=O)n6ccnc6C)C(C)(C)[C@@H]5CC[C@]43C)[C@@H]12 [Compound 31, 28-(2′-methyl-1H-imidazole-1-yl)-28-oxo-lup-20(29)-en-3β-yl-2′-methyl-1H-imidazole-1-carboxylate] | 11.6 ± 0.8 µM | 7.8 ± 1.6 µM | – | 20.1 ± 3.2 µM | – | – | – | – | –
9 | C=C(C)[C@@H]1CC[C@]2(C(=O)OC)CC[C@]3(C)[C@H](CC[C@@H]4[C@@]5(C)CC[C@H](OC(=O)n6ccnc6C)C(C)(C)[C@@H]5CC[C@]43C)[C@@H]12 [Compound 34, Methyl 3β-(2′-methyl-1H-imidazole-1-carbonyloxy)-lup-20(29)-en-28-oate] | 13.4 ± 1.7 µM | 12.9 ± 0.5 µM | 13.4 ± 1.7 µM | 16.4 ± 2.4 µM | – | – | – | – | –
10 | C=C(COC)[C@@H]1CC[C@]2(COC(=O)n3ccnc3)CC[C@]3(C)[C@H](CC[C@@H]4[C@@]5(C)CC[C@H](O)C(C)(C)[C@@H]5CC[C@]43C)[C@@H]12 [Compound 35, 3β-hydroxy-30-methoxylup-20(29)-en-28-yl-1H-imidazole-1-carboxylate] | 8.3 ± 0.4 µM | – | 9.8 ± 0.6 µM | 12.2 ± 1.3 µM | 9.5 ± 0.7 µM | 7.7 ± 0.9 µM | 96.4 ± 7.5 µM | 11.4 ± 1.3 µM | –
11 | C=C(COC)[C@@H]1CC[C@]2(COC(=O)n3ccnc3)CC[C@]3(C)[C@H](CC[C@@H]4[C@@]5(C)CC[C@H](OC(=O)n6ccnc6)C(C)(C)[C@@H]5CC[C@]43C)[C@@H]12 [Compound 38, 30-methoxylup-20(29)-en-3β,28-di-yl-(1H-imidazole-1-carboxylate)] | 19.6 ± 1.6 µM | – | > 30 µM | 16.2 ± 1 µM | 7.3 ± 1.1 µM | 8.1 ± 1 µM | 170 ± 17.7 µM | 2 ± 0.3 µM | –
12 | C[C@@H](C=O)[C@@H]1CC[C@]2(COC(=O)n3ccnc3)CC[C@]3(C)[C@H](CC[C@@H]4[C@@]5(C)CC[C@H](O)C(C)(C)[C@@H]5CC[C@]43C)[C@@H]12 [Compound 41, 3β-hydroxy-(20R)-lupan-29-oxo-28-yl-1H-imidazole-1-carboxylate] | 11.5 ± 1.1 µM | – | 11.1 ± 1.4 µM | 13.7 ± 1.4 µM | > 30 µM | 15.6 ± 2.4 µM | 146 ± 4.5 µM | 16.7 ± 2.4 µM | –
13 | C[C@@H](C=O)[C@@H]1CC[C@]2(COC(=O)n3ccnc3)CC[C@]3(C)[C@H](CC[C@@H]4[C@@]5(C)CC[C@H](OC(=O)n6ccnc6)C(C)(C)[C@@H]5CC[C@]43C)[C@@H]12 [Compound 43, (20R)-lupane-29-oxo-3β,28-di-yl-(1H-imidazole-1-carboxylate)] | 26.1 ± 1.1 µM | – | 19.2 ± 1.5 µM | 20.2 ± 1.6 µM | 7.9 ± 1.3 µM | 6.9 ± 0.3 µM | 156 ± 12.5 µM | 6.2 ± 0.7 µM | –
